Data set [1] addresses T1, human recombinant C-terminal His-tagged LDHA (Homo sapiens, UniProt P00338).
T1 construct: His (C)
Kind of data set: Human LDHA enzyme assay. It counts as biochemical. The conditions noted are these: 50 μM pyruvate, 50 μM NADH, no HSA. As to the method:
(§1) Compounds were dissolved in DMSO and preincubated with human recombinant C-terminal His-tagged LDHA (0.070 μg/mL) for 10 min at room temperature in assay buffer consisting 50 mM Tris, pH 7.5 and 100 mM NaCl in black walled, clear bottom, non-binding 96-well plates. Equal volumes of substrate solution containing 100 μM of pyruvate and 100 μM of NADH in assay buffer was added to each well (final concentration 0.035 μg/mL enzyme, 50 μM pyruvate, 50 μM NADH, and 1% DMSO). For human serum albumin (HSA) shift assay, the compounds were preincubated with the enzyme in assay buffer containing 20% HSA before substrate addition (final concentration 10% HSA). The reaction was monitored at 340 nm on a plate reader (Molecular Devices) in kinetic mode for 15 min. The rate of the reaction was determined by plotting absorbance vs time.

Data set [2] addresses T1, human recombinant C-terminal His-tagged LDHA. Kind of data set: Human LDHA enzyme assay, human serum albumin (HSA) shift. The data set is classed as biochemical. Particulars: final concentration 10% HSA. As to the method:
as §1

Data set [3] deals with fresh primary mouse hepatocytes. The experiment in a line: Primary mouse hepatocyte assay (lactate production). The data set is classed as cell-based. As to the method:
Compounds were evaluated in an ex vivo assay consisting of fresh primary mouse hepatocytes. Hepatocytes were isolated from wild type mice (C57BL/6NCrl from Charles River Labs) using a two-step collagenase perfusion technique which involves a sequential perfusion of anesthetized mice with Hanks' balanced salt solution and collagenase. Following isolation, viable wild type hepatocytes (0.1 M cells/well) were incubated with test compound in presence of pyruvate and compound potency was evaluated by measuring the lactate produced by the cells using liquid chromatography coupled to mass spectrometry. Chromatographic separation was achieved on an XDB-C18 4.6×50 mm column (Agilent, Cat #927975-902) at a flow rate of 1 mL/min Mobile phase A consisted of 0.1% formic acid in water and mobile phase B consisted of acetonitrile. A gradient program was initiated starting at 5% B which was held for 1 minutes, then ramped from 5% to 95% B over 1 minute. After holding at 95% B for 1 minute, the program changed back to 5% B. The column was equilibrated with 5% B for […] before the next injection. The mass spectrometer was operated in negative mode with electrospray ionization. The following transition along with their collision energy (CE) were used: 89→43 (CE: −16 V) for lactate and 92→45 (CE: −16 V) for ^13C3-Lactate (internal standard).

The nature of data set [4]: Liver-targeted tissue distribution profile study in rats. It counts as in vivo, Sprague Dawley rats. The conditions noted are these: rat, single 10 mg/kg PO. As to the method:
Plasma and liver (target organ) concentrations of test compounds were determined in rats following a single per os (PO) administration of the test compounds. Male Sprague Dawley rats (6-8 weeks of age, Charles River Labs) were fasted overnight and a single dose of test compounds (10 mg/kg; as a suspension in 0.5% methyl cellulose) was administered by PO gavage. Rats were then sacrificed at 4 and 24 h after administration of the test compounds, and plasma and liver tissue samples were collected. Liver tissue samples were homogenized in 5 volumes of water:acetonitrile (50/50; v/v) mixture using a bead mill homogenizer. Plasma and liver homogenate samples were processed by protein precipitation using acetonitrile and the concentrations of the test compounds were determined by liquid chromatography-tandem mass spectrometry (SciEx triple quad 5500+ with Exion UPLC).
Liver and plasma exposures at the 4 h and 24 h timepoints for the various compounds are described in Table 5 below. Measured compound concentrations are as follows: ++++>10 μM; 10 μM≥+++>5 μM; 5 μM≥++>1 μM; 1 μM≥+>0.25 μM; and 0.25 μM≥−.

Where [5] appears, read: Run at 0.4M cells/well concentration of hepatocytes.

Turning to `NS(=O)(=O)c1ccc(Cc2c(-c3cccc(OCC(F)(F)F)c3)nn(-c3nc(C(=O)O)cs3)c2CC2CC2)cc1F` [Example 22, 2-(5-(cyclopropylmethyl)-4-(3-fluoro-4-sulfamoylbenzyl)-3-(3-(2,2,2-trifluoroethoxy)phenyl)-1H-pyrazol-1-yl)thiazole-4-carboxylic acid], the IC50 in data set [1] was less than 1 nM. In addition, the IC50 in data set [2] was 1 to 10 nM. The molecule also displayed an IC50 in data set [3] (0.1 M cells/well) of less than 100 nM. Further, in data set [4], the “Measured Compound Concentrations Liver - 4 h” value is “++ (5 μM≥++>1 μM)”, the “Measured Compound Concentrations Liver - 24 h” value is listed as “− (0.25 μM≥−)”, the “Measured Compound Concentrations Plasma - 4 h” value is recorded as “− (0.25 μM≥−)” and the “Measured Compound Concentrations Plasma - 24 h” value is recorded as “− (0.25 μM≥−)”.
Turning to `NS(=O)(=O)c1ccc(Cc2c(-c3cccc(F)c3)nn(-c3nc(C(=O)O)cs3)c2CC2CC2)cc1F` [Example 14, 2-(5-(cyclopropylmethyl)-4-(3-fluoro-4-sulfamoylbenzyl)-3-(3-fluorophenyl)-1H-pyrazol-1-yl)thiazole-4-carboxylic acid], the IC50 in data set [1] was less than 1 nM. In addition, the IC50 in data set [2] was in the range of 1 to 10 nM. Also, the IC50 in data set [3] (setting [5]) is less than 100 nM. Besides, in data set [4], the “Measured Compound Concentrations Liver - 4 h” value is “++++ (++++>10 μM)”, the “Measured Compound Concentrations Liver - 24 h” value is “+ (1 μM≥+>0.25 μM)”, the “Measured Compound Concentrations Plasma - 4 h” value is “− (0.25 μM≥−)” and the “Measured Compound Concentrations Plasma - 24 h” value is on record as “− (0.25 μM≥−)”.
With `NS(=O)(=O)c1ccc(Cc2c(-c3cccc(C(F)(F)F)c3)nn(-c3nc(C(=O)O)cs3)c2CC2CC2)cc1F` [Example 18, 2-(5-(cyclopropylmethyl)-4-(3-fluoro-4-sulfamoylbenzyl)-3-(3-(trifluoromethyl)phenyl)-1H-pyrazol-1-yl)thiazole-4-carboxylic acid], the IC50 in data set [1] was less than 1 nM. Moreover, the half-inhibitory concentration (IC50) in data set [2] is 1 to 10 nM. The molecule also had an IC50 in data set [3] (0.1 M cells/well) of less than 100 nM. In data set [4], the “Measured Compound Concentrations Liver - 4 h” value is listed as “+++ (10 μM≥+++>5 μM)”, the “Measured Compound Concentrations Liver - 24 h” value was “− (0.25 μM≥−)”, the “Measured Compound Concentrations Plasma - 4 h” value is “− (0.25 μM≥−)” and the “Measured Compound Concentrations Plasma - 24 h” value is “− (0.25 μM≥−)”.
With `NS(=O)(=O)c1ccc(Cc2c(-c3ccc(F)cc3)nn(-c3nc(C(=O)O)cs3)c2CC2CC2)cc1F` [Example 1, 2-(5-(cyclopropylmethyl)-4-(3-fluoro-4-sulfamoylbenzyl)-3-(4-fluorophenyl)-1H-pyrazol-1-yl)thiazole-4-carboxylic acid], the IC50 in data set [1] is less than 1 nM. The IC50 in data set [2] was in the range of 1 to 10 nM. The same molecule gave an IC50 in data set [3] (0.1 M cells/well) of less than 100 nM. In data set [4], the “Measured Compound Concentrations Liver - 4 h” value was “++++ (++++>10 μM)”, the “Measured Compound Concentrations Liver - 24 h” value is “+ (1 μM≥+>0.25 μM)”, the “Measured Compound Concentrations Plasma - 4 h” value was “− (0.25 μM≥−)” and the “Measured Compound Concentrations Plasma - 24 h” value is “− (0.25 μM≥−)”.
In the case of `NS(=O)(=O)c1ccc(Cc2c(-c3cc(F)c(F)c(F)c3)nn(-c3nc(C(=O)O)cs3)c2CC2CC2)cc1F` [Example 28, 2-(5-(Cyclopropylmethyl)-4-(3-fluoro-4-sulfamoylbenzyl)-3-(3,4,5-trifluorophenyl)-1H-pyrazol-1-yl)thiazole-4-carboxylic acid], the IC50 in data set [1] is less than 1 nM. Moreover, in data set [2], the IC50 fell in the range of 1 to 10 nM. The same molecule gave an IC50 in data set [3] (0.1 M cells/well) of less than 100 nM. Besides, in data set [4], the “Measured Compound Concentrations Liver - 4 h” value was “+++ (10 μM≥+++>5 μM)”, the “Measured Compound Concentrations Liver - 24 h” value was “− (0.25 μM≥−)”, the “Measured Compound Concentrations Plasma - 4 h” value was “− (0.25 μM≥−)” and the “Measured Compound Concentrations Plasma - 24 h” value was “− (0.25 μM≥−)”.
As for `NS(=O)(=O)c1ccc(Cc2c(-c3ccc(F)c(F)c3)nn(-c3nc(C(=O)O)cs3)c2CC2CC2)cc1F` [Example 12, 2-(5-(Cyclopropylmethyl)-3-(3,4-difluorophenyl)-4-(3-fluoro-4-sulfamoylbenzyl)-1H-pyrazol-1-yl)thiazole-4-carboxylic acid], the IC50 in data set [1] was less than 1 nM. Besides, the IC50 in data set [2] was 1 to 10 nM. The IC50 in data set [3] (0.1 M cells/well) is less than 100 nM. In data set [4], the “Measured Compound Concentrations Liver - 4 h” value was “+++ (10 μM≥+++>5 μM)”, the “Measured Compound Concentrations Liver - 24 h” value was “− (0.25 μM≥−)”, the “Measured Compound Concentrations Plasma - 4 h” value is “− (0.25 μM≥−)” and the “Measured Compound Concentrations Plasma - 24 h” value is “− (0.25 μM≥−)”.
As to `NS(=O)(=O)c1ccc(Cc2c(-c3cc(F)cc(F)c3)nn(-c3nc(C(=O)O)cs3)c2CC2CC2)cc1F` [Example 15, 2-(5-(cyclopropylmethyl)-3-(3,5-difluorophenyl)-4-(3-fluoro-4-sulfamoylbenzyl)-1H-pyrazol-1-yl)thiazole-4-carboxylic acid], in data set [1], the IC50 was less than 1 nM. Also, the IC50 in data set [2] is 1 to 10 nM. This molecule also yielded an IC50 in data set [3] (setting [5]) of less than 100 nM. Further, in data set [4], the “Measured Compound Concentrations Liver - 4 h” value is on record as “++++ (++++>10 μM)”, the “Measured Compound Concentrations Liver - 24 h” value is “+ (1 μM≥+>0.25 μM)”, the “Measured Compound Concentrations Plasma - 4 h” value is on record as “− (0.25 μM≥−)” and the “Measured Compound Concentrations Plasma - 24 h” value is “− (0.25 μM≥−)”.
With `COc1cc(F)cc(-c2nn(-c3nc(C(=O)O)cs3)c(CC3CC3)c2Cc2ccc(S(N)(=O)=O)c(F)c2)c1` [Example 24, 2-(5-(cyclopropylmethyl)-4-(3-fluoro-4-sulfamoylbenzyl)-3-(3-fluoro-5-methoxyphenyl)-1H-pyrazol-1-yl)thiazole-4-carboxylic acid], the values for the IC50 in data set [1], in data set [2] and in data set [3] (0.1 M cells/well) were 1 to 10 nM, 1 to 10 nM and less than 100 nM, respectively.
Regarding `NS(=O)(=O)c1ccc(Cc2c(-c3ccc(C(F)F)cc3)nn(-c3nc(C(=O)O)cs3)c2CC2CC2)cc1F` [Example 21, 2-(5-(cyclopropylmethyl)-3-(4-(difluoromethyl)phenyl)-4-(3-fluoro-4-sulfamoylbenzyl)-1H-pyrazol-1-yl)thiazole-4-carboxylic acid], in data set [1], the IC50 was less than 1 nM. The IC50 in data set [2] fell in the range of 10 to 100 nM. Besides, the IC50 in data set [3] (0.1 M cells/well) was less than 100 nM. Further, in data set [4], the “Measured Compound Concentrations Liver - 4 h” value was “++ (5 μM≥++>1 μM)”, the “Measured Compound Concentrations Liver - 24 h” value was “− (0.25 μM≥−)”, the “Measured Compound Concentrations Plasma - 4 h” value is given as “− (0.25 μM≥−)” and the “Measured Compound Concentrations Plasma - 24 h” value is “− (0.25 μM≥−)”.
As for `NS(=O)(=O)c1ccc(Cc2c(-c3cc(Cl)cc(Cl)c3)nn(-c3nc(C(=O)O)cs3)c2CC2CC2)cc1F` [Example 26, 2-(5-(cyclopropylmethyl)-3-(3,5-dichlorophenyl)-4-(3-fluoro-4-sulfamoylbenzyl)-1H-pyrazol-1-yl)thiazole-4-carboxylic acid], in data set [1], the IC50 was less than 1 nM. The IC50 in data set [2] lay within 10 to 100 nM. In data set [3] (0.1 M cells/well), the IC50 lay within 100 to 250 nM. Also, in data set [4], the “Measured Compound Concentrations Liver - 4 h” value is “++ (5 μM≥++>1 μM)”, the “Measured Compound Concentrations Liver - 24 h” value is reported as “− (0.25 μM≥−)”, the “Measured Compound Concentrations Plasma - 4 h” value is “− (0.25 μM≥−)” and the “Measured Compound Concentrations Plasma - 24 h” value is recorded as “− (0.25 μM≥−)”.
On to `NS(=O)(=O)c1c(F)cc(Cc2c(-c3ccc(F)cc3)nn(-c3nc(C(=O)O)cs3)c2CC2CC2)cc1F` [Example 27, 2-(5-(Cyclopropylmethyl)-4-(3,5-difluoro-4-sulfamoylbenzyl)-3-(4-fluorophenyl)-1H-pyrazol-1-yl)thiazole-4-carboxylic acid], for which the IC50 in data set [1] is less than 1 nM; in data set [2] it was 1 to 10 nM; in data set [3] (0.1 M cells/well) it was 100 to 250 nM.
Consider `COc1cc(-c2nn(-c3nc(C(=O)O)cs3)c(CC3CC3)c2Cc2ccc(S(N)(=O)=O)c(F)c2)ccc1C#N` [Example 23, 2-(3-(4-cyano-3-methoxyphenyl)-5-(cyclopropylmethyl)-4-(3-fluoro-4-sulfamoylbenzyl)-1H-pyrazol-1-yl)thiazole-4-carboxylic acid], for which the figures for the IC50 in data set [1], in data set [2] and in data set [3] (0.1 M cells/well) were less than 1 nM, 1 to 10 nM and less than 100 nM, respectively.

As usually defined, the IC50 is the point on the concentration scale where inhibition reaches its midpoint.

Source of the values: US20230183228A1, “SUBSTITUTED PYRAZOLYL COMPOUNDS AND METHODS OF USE THEREOF” (Chinook Therapeutics Canada, Inc., priority 2020, published 2023).
